#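 Compound exposure: 48 hours, 5 concentrations, 96-well plates. The concentration for 50% growth inhibition is given as GI50.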 The source made the active and inactive calls. Cut-off read from the data, not from the text of the source: active = GI50 up to about 1.1 µM and inactive = higher.
# Tests used:
# Experiment in all cases: inhibition of tumour cell growth, NCI panel, 48 h
# [1] = test system: UACC-62
# [2] = test system: OVCAR-8
# [3] = test system: UO-31
# [4] = test system: HCT-15
# [5] = test system: Malme-3M
# [6] = test system: OVCAR-4
# [7] = test system: UACC-257
# [8] = test system: U-251
# [9] = test system: SW-620
# [10] = test system: EKVX
# [11] = test system: CCRF-CEM
# [12] = test system: HOP-62
# [13] = test system: HCT-116
# [14] = test system: KM12
# [15] = test system: A498
# [16] = test system: RPMI-8226
# [17] = test system: LXFL 529
# [18] = test system: A549
# [19] = test system: SF-295
# [20] = test system: SK-MEL-28
# [21] = test system: ACHN
# [22] = test system: HOP-18
# [23] = test system: SN12C
# [24] = test system: DMS-114
# [25] = test system: NCI-H23
# [26] = test system: NCI-H522
# [27] = test system: DMS-273
# [28] = test system: RXF 393
# [29] = test system: DLD-1
# [30] = test system: HL-60
# [31] = test system: OVCAR-3
# [32] = test system: NCI-H226
# [33] = test system: SK-OV-3
# [34] = test system: IGROV-1
# [35] = test system: 786-0
# [36] = test system: SR
# [37] = test system: M14
# [38] = test system: SNB-19
# [39] = test system: HT-29
# [40] = test system: HOP-92
# [41] = test system: COLO 205
# [42] = test system: NCI-H460
# [43] = test system: CAKI-1
# [44] = test system: KM-20L2
# [45] = test system: SF-268
# [46] = test system: MOLT-4
# [47] = test system: OVCAR-5
# [48] = test system: LOX IMVI
# [49] = test system: HCC 2998
# [50] = test system: TK-10
# [51] = test system: SNB-78
# [52] = test system: K562
# [53] = test system: SK-MEL-2
# [54] = test system: XF498
# [55] = test system: SK-MEL-5
# [56] = test system: SF-539
# [57] = test system: M19-MEL
# [58] = test system: SNB-75
compound,measurement,setting,value
CC(=O)c1sc(Nc2nnc(-c3ccc(-c4nnc(Nc5nc(C)c(C(C)=O)s5)o4)cc3)o2)nc1C,GI50,[1],> 100 µM (inactive)
same,GI50,[2],> 100 µM (inactive)
same,GI50,[3],> 10 µM (inactive)
same,GI50,[4],> 100 µM
same,GI50,[5],> 100 µM (inactive)
same,GI50,[6],> 100 µM (inactive)
same,GI50,[7],> 100 µM (inactive)
same,GI50,[8],> 100 µM (inactive)
same,GI50,[9],> 100 µM (inactive)
same,GI50,[10],> 100 µM (inactive)
same,GI50,[11],> 100 µM (inactive)
same,GI50,[12],> 100 µM (inactive)
same,GI50,[13],> 100 µM (inactive)
same,GI50,[14],> 10 µM (inactive)
same,GI50,[15],> 100 µM (inactive)
same,GI50,[16],> 100 µM (inactive)
same,GI50,[17],> 100 µM (inactive)
same,GI50,[18],> 10 µM (inactive)
same,GI50,[19],> 100 µM (inactive)
same,GI50,[20],> 100 µM (inactive)
same,GI50,[21],> 100 µM (inactive)
same,GI50,[22],> 100 µM (inactive)
same,GI50,[23],> 100 µM (inactive)
same,GI50,[24],> 100 µM (inactive)
same,GI50,[25],> 100 µM (inactive)
same,GI50,[26],> 10 µM (inactive)
same,GI50,[27],> 100 µM (inactive)
same,GI50,[28],> 100 µM (inactive)
same,GI50,[29],> 100 µM (inactive)
same,GI50,[30],> 100 µM (inactive)
same,GI50,[31],> 100 µM (inactive)
same,GI50,[32],> 100 µM (inactive)
same,GI50,[33],> 10 µM (inactive)
same,GI50,[34],> 100 µM (inactive)
same,GI50,[35],> 100 µM (inactive)
same,GI50,[36],> 100 µM (inactive)
same,GI50,[37],> 100 µM (inactive)
same,GI50,[38],> 100 µM (inactive)
same,GI50,[39],> 100 µM (inactive)
same,GI50,[40],> 100 µM (inactive)
same,GI50,[41],> 100 µM (inactive)
same,GI50,[42],> 100 µM (inactive)
same,GI50,[43],> 10 µM (inactive)
same,GI50,[44],> 100 µM (inactive)
same,GI50,[45],> 100 µM (inactive)
same,GI50,[46],> 100 µM (inactive)
same,GI50,[47],> 10 µM (inactive)
same,GI50,[48],> 100 µM (inactive)
same,GI50,[49],> 100 µM (inactive)
same,GI50,[50],> 100 µM (inactive)
same,GI50,[51],> 100 µM (inactive)
same,GI50,[52],> 100 µM (inactive)
CC(C)OP(=O)(OC(C)C)C1=NN(c2ccc([N+](=O)[O-])cc2)C(P(=O)(OC(C)C)OC(C)C)=NN1c1ccc([N+](=O)[O-])cc1,GI50,[1],> 100 µM (inactive)
same,GI50,[2],38.1 µM (inactive)
same,GI50,[53],> 100 µM (inactive)
same,GI50,[3],95.7 µM (inactive)
same,GI50,[4],9.18 µM
same,GI50,[5],72.1 µM (inactive)
same,GI50,[6],> 100 µM (inactive)
same,GI50,[8],42.7 µM (inactive)
same,GI50,[9],> 100 µM (inactive)
same,GI50,[10],8.91 µM (inactive)
same,GI50,[11],91.4 µM (inactive)
same,GI50,[12],> 100 µM (inactive)
same,GI50,[13],7.6 µM (inactive)
same,GI50,[14],67.3 µM (inactive)
same,GI50,[16],5.62 µM (inactive)
same,GI50,[17],22.9 µM (inactive)
same,GI50,[18],7.94 µM (inactive)
same,GI50,[54],7.98 µM (inactive)
same,GI50,[20],> 100 µM (inactive)
same,GI50,[21],> 100 µM (inactive)
same,GI50,[22],> 100 µM (inactive)
same,GI50,[23],44.7 µM (inactive)
same,GI50,[24],12.8 µM (inactive)
same,GI50,[25],> 100 µM (inactive)
same,GI50,[26],46 µM (inactive)
same,GI50,[27],22.5 µM (inactive)
same,GI50,[28],> 100 µM (inactive)
same,GI50,[29],5.32 µM (inactive)
same,GI50,[30],2.55 µM (inactive)
same,GI50,[31],> 100 µM (inactive)
same,GI50,[32],> 100 µM (inactive)
same,GI50,[33],> 100 µM (inactive)
same,GI50,[34],> 100 µM (inactive)
same,GI50,[36],9.08 µM (inactive)
same,GI50,[55],24.5 µM (inactive)
same,GI50,[37],> 100 µM (inactive)
same,GI50,[38],> 100 µM (inactive)
same,GI50,[39],44 µM (inactive)
same,GI50,[40],7.62 µM (inactive)
same,GI50,[41],> 100 µM (inactive)
same,GI50,[42],29.2 µM (inactive)
same,GI50,[43],63.5 µM (inactive)
same,GI50,[44],> 100 µM (inactive)
same,GI50,[45],> 100 µM (inactive)
same,GI50,[56],31 µM (inactive)
same,GI50,[46],5.19 µM (inactive)
same,GI50,[47],> 100 µM (inactive)
same,GI50,[48],> 100 µM (inactive)
same,GI50,[57],> 100 µM (inactive)
same,GI50,[49],47.2 µM (inactive)
same,GI50,[50],> 100 µM (inactive)
same,GI50,[52],6.95 µM (inactive)
O=S1OC2(c3ccccc3-c3ccccc32)c2ccccc21 (stereo unspecified),GI50,[1],> 100 µM (inactive)
same,GI50,[2],> 100 µM (inactive)
same,GI50,[3],> 100 µM (inactive)
same,GI50,[4],86.3 µM
same,GI50,[5],> 100 µM (inactive)
same,GI50,[6],> 100 µM (inactive)
same,GI50,[7],> 100 µM (inactive)
same,GI50,[8],> 100 µM (inactive)
same,GI50,[9],> 100 µM (inactive)
same,GI50,[10],> 100 µM (inactive)
same,GI50,[11],72.8 µM (inactive)
same,GI50,[12],40.6 µM (inactive)
same,GI50,[13],> 100 µM (inactive)
same,GI50,[14],> 100 µM (inactive)
same,GI50,[15],> 100 µM (inactive)
same,GI50,[16],> 100 µM (inactive)
same,GI50,[17],> 100 µM (inactive)
same,GI50,[18],> 100 µM (inactive)
same,GI50,[54],> 100 µM (inactive)
same,GI50,[19],> 100 µM (inactive)
same,GI50,[20],> 100 µM (inactive)
same,GI50,[21],> 100 µM (inactive)
same,GI50,[22],> 100 µM (inactive)
same,GI50,[23],> 100 µM (inactive)
same,GI50,[24],> 100 µM (inactive)
same,GI50,[25],> 100 µM (inactive)
same,GI50,[26],> 100 µM (inactive)
same,GI50,[28],53 µM (inactive)
same,GI50,[29],> 100 µM (inactive)
same,GI50,[30],> 100 µM (inactive)
same,GI50,[31],> 100 µM (inactive)
same,GI50,[32],> 100 µM (inactive)
same,GI50,[33],> 100 µM (inactive)
same,GI50,[34],> 100 µM (inactive)
same,GI50,[35],> 100 µM (inactive)
same,GI50,[36],> 100 µM (inactive)
same,GI50,[55],> 100 µM (inactive)
same,GI50,[37],> 100 µM (inactive)
same,GI50,[38],> 100 µM (inactive)
same,GI50,[39],> 100 µM (inactive)
same,GI50,[41],> 100 µM (inactive)
same,GI50,[42],> 100 µM (inactive)
same,GI50,[44],> 100 µM (inactive)
same,GI50,[56],> 100 µM (inactive)
same,GI50,[46],52.4 µM (inactive)
same,GI50,[47],> 100 µM (inactive)
same,GI50,[48],> 100 µM (inactive)
same,GI50,[57],> 100 µM (inactive)
same,GI50,[49],> 100 µM (inactive)
same,GI50,[58],> 100 µM (inactive)
same,GI50,[50],> 100 µM (inactive)
same,GI50,[52],> 100 µM (inactive)

# Source: ChEMBL document CHEMBL1201862, “PubChem BioAssay data set” (2004)
